Here are results for two compounds from US20170035884A1, “AQUEOUS GELLING COMPOSITIONS OF SOLUBLE ACTIVE PHARMACEUTICAL PEPTIDES PROVIDING MODIFIED RELEASE” (Ipsen Pharma S.A.S., priority 2012, published 2017).

Structures can show the parent of a compound that is named as a salt. Where two headings read alike, the source gives them in different places. Where only a bound is given, the exact number is not on record here.

This series in a line: Solubility testing of peptide 1 salts in gelling compositions (HPLC after filtration). It counts as physicochemical. On the procedure: The solubility of the peptide 1 salts in the gelling compositions of Table 1 was evaluated using HPLC analysis after filtration.

As to `CC(=O)NC(CCCNC(=N)N)C(=O)N[C@H]1CSSC[C@@H](C(N)=O)NC(=O)[C@H](Cc2c[nH]c3ccccc23)NC(=O)[C@H](CCCNC(=N)N)NC(=O)[C@@H](Cc2ccccc2)NC(=O)[C@H](Cc2cnc[nH]2)NC(=O)[C@@H](C)NC1=O` (stereo partly drawn) [peptide 1 heptanoate salt, Ac-Arg-c(Cys-D-Ala-His-D-Phe-Arg-Trp-Cys)-NH2], under “in 32% PEG 400”, the solubility is given as 28.1 mg/mL. Turning to `CC(=O)NC(CCCNC(=N)N)C(=O)N[C@H]1CSSC[C@@H](C(N)=O)NC(=O)[C@H](Cc2c[nH]c3ccccc23)NC(=O)[C@H](CCCNC(=N)N)NC(=O)[C@@H](Cc2ccccc2)NC(=O)[C@H](Cc2cnc[nH]2)NC(=O)[C@@H](C)NC1=O` (stereo partly drawn) [peptide 1 acetate salt, Ac-Arg-c(Cys-D-Ala-His-D-Phe-Arg-Trp-Cys)-NH2], the solubility is ≥ 100 mg/mL (38% glycerol gelling composition, in 38% glycerol, read-out: solubility) and ≥ 100 mg/mL (in 32% PEG 400).
